Measurements reported in PubChem BioAssay AID1963831 (Molecular Pharmacology Branch, DTP, NCI, 2024).

Test system: 889142-216-R-J1-PDC complex spheroid viability
Assay: Anticancer human tumor 889142-216-R-J1-PDC patient-derived bladder carcinoma cell line growth inhibition [POLQ]
Details: for IC50: curve of first compound; for viability, T/C: stronger effect = lower value
How it was run: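 Growth inhibition in 3D: complex spheroids (tumor PDC, HUVEC, MSC) treated with POLQ inhibitor combinations; where Cmax unknown, highest tested concentration 10 microM, except SN-38 at 1 microM.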

[1] = second compound 0.0316 µM, first compound 0.0316 µM
[2] = second compound 0.0316 µM, first compound 0.1 µM
[3] = second compound 0.0316 µM, first compound 0.316 µM
[4] = second compound 0.0316 µM, first compound 1 µM
[5] = second compound 0.0316 µM, first compound 3.16 µM
[6] = second compound 0.0316 µM, first compound 10 µM
[7] = second compound 0.1 µM, first compound 0.0316 µM
[8] = second compound 0.1 µM, first compound 0.1 µM
[9] = second compound 0.1 µM, first compound 0.316 µM
[10] = second compound 0.1 µM, first compound 1 µM
[11] = second compound 0.1 µM, first compound 3.16 µM
[12] = second compound 0.1 µM, first compound 10 µM
[13] = second compound 0.316 µM, first compound 0.0316 µM
[14] = second compound 0.316 µM, first compound 0.1 µM
[15] = second compound 0.316 µM, first compound 0.316 µM
[16] = second compound 0.316 µM, first compound 1 µM
[17] = second compound 0.316 µM, first compound 3.16 µM
[18] = second compound 0.316 µM, first compound 10 µM
[19] = second compound 1 µM, first compound 0.0316 µM
[20] = second compound 1 µM, first compound 0.1 µM
[21] = second compound 1 µM, first compound 0.316 µM
[22] = second compound 1 µM, first compound 1 µM
[23] = second compound 1 µM, first compound 3.16 µM
[24] = second compound 1 µM, first compound 10 µM
[25] = second compound 3.16 µM, first compound 0.0316 µM
[26] = second compound 3.16 µM, first compound 0.1 µM
[27] = second compound 3.16 µM, first compound 0.316 µM
[28] = second compound 3.16 µM, first compound 1 µM
[29] = second compound 3.16 µM, first compound 3.16 µM
[30] = second compound 3.16 µM, first compound 10 µM
[31] = second compound 10 µM, first compound 0.0316 µM
[32] = second compound 10 µM, first compound 0.1 µM
[33] = second compound 10 µM, first compound 0.316 µM
[34] = second compound 10 µM, first compound 1 µM
[35] = second compound 10 µM, first compound 3.16 µM
[36] = second compound 10 µM, first compound 10 µM
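Note: spheroids exposed to compounds for seven days.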
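Throughout, for viability, T/C: 100% = DMSO vehicle control viability.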

Compound: COc1cc(C2c3cc4c(cc3C(OC3OC5COC(C)OC5C(O)C3O)C3COC(=O)C23)OCO4)cc(OC)c1O (stereo unspecified) + Nc1ccc(C#CCN(C(=O)Cc2ncc(C(F)(F)F)cc2C(F)(F)F)c2ccc(F)cc2)nn1
- IC50 (second compound 0.0316 µM): > 10 µM
- IC50 (second compound 0.1 µM): > 10 µM
- IC50 (second compound 0.316 µM): > 10 µM
- IC50 (second compound 1 µM): 8.97 µM
- IC50 (second compound 3.16 µM): > 10 µM
- IC50 (second compound 10 µM): > 10 µM
- viability, T/C [1]: 90.8%
- viability, T/C [2]: 92.8%
- viability, T/C [3]: 86.8%
- viability, T/C [4]: 60.5%
- viability, T/C [5]: 96.8%
- viability, T/C [6]: 62.9%
- viability, T/C [7]: 99.5%
- viability, T/C [8]: 101%
- viability, T/C [9]: 69.3%
- viability, T/C [10]: 60.2%
- viability, T/C [11]: 84.5%
- viability, T/C [12]: 61.5%
- viability, T/C [13]: 116%
- viability, T/C [14]: 86.2%
- viability, T/C [15]: 78.8%
- viability, T/C [16]: 69%
- viability, T/C [17]: 79.2%
- viability, T/C [18]: 54.4%
- viability, T/C [19]: 121%
- viability, T/C [20]: 95.6%
- viability, T/C [21]: 80.5%
- viability, T/C [22]: 58.2%
- viability, T/C [23]: 66%
- viability, T/C [24]: 56.9%
- viability, T/C [25]: 104%
- viability, T/C [26]: 78.2%
- viability, T/C [27]: 72.2%
- viability, T/C [28]: 59.8%
- viability, T/C [29]: 68.1%
- viability, T/C [30]: 61%
- viability, T/C [31]: 86.7%
- viability, T/C [32]: 104%
- viability, T/C [33]: 79.9%
- viability, T/C [34]: 74.3%
- viability, T/C [35]: 76.4%
- viability, T/C [36]: 62.9%

Compound: O=C(Nc1ccc(O)c(NS(=O)(=O)c2ccc(F)cc2)c1)c1ccc(-c2ccccc2)cc1 + COC1C(OC(N)=O)C(O)C(Oc2ccc3c(O)c(NC(=O)c4ccc(O)c(CC=C(C)C)c4)c(=O)oc3c2C)OC1(C)C
- IC50 (second compound 0.0316 µM): > 10 µM
- IC50 (second compound 0.1 µM): > 10 µM
- IC50 (second compound 0.316 µM): > 10 µM
- IC50 (second compound 1 µM): > 10 µM
- IC50 (second compound 3.16 µM): > 10 µM
- IC50 (second compound 10 µM): > 10 µM
- viability, T/C [1]: 122%
- viability, T/C [2]: 98.7%
- viability, T/C [3]: 115%
- viability, T/C [4]: 116%
- viability, T/C [5]: 116%
- viability, T/C [6]: 67.2%
- viability, T/C [7]: 93.9%
- viability, T/C [8]: 90.7%
- viability, T/C [9]: 92.6%
- viability, T/C [10]: 108%
- viability, T/C [11]: 111%
- viability, T/C [12]: 64.7%
- viability, T/C [13]: 128%
- viability, T/C [14]: 110%
- viability, T/C [15]: 99.9%
- viability, T/C [16]: 125%
- viability, T/C [17]: 139%
- viability, T/C [18]: 73.8%
- viability, T/C [19]: 103%
- viability, T/C [20]: 115%
- viability, T/C [21]: 114%
- viability, T/C [22]: 107%
- viability, T/C [23]: 105%
- viability, T/C [24]: 75.9%
- viability, T/C [25]: 87.7%
- viability, T/C [26]: 108%
- viability, T/C [27]: 96.2%
- viability, T/C [28]: 117%
- viability, T/C [29]: 126%
- viability, T/C [30]: 73.6%
- viability, T/C [31]: 99.8%
- viability, T/C [32]: 103%
- viability, T/C [33]: 101%
- viability, T/C [34]: 118%
- viability, T/C [35]: 107%
- viability, T/C [36]: 63.7%

Compound: COc1cc(C2c3cc4c(cc3C(OC3OC5COC(C)OC5C(O)C3O)C3COC(=O)C23)OCO4)cc(OC)c1O (stereo unspecified) + COC1C(OC(N)=O)C(O)C(Oc2ccc3c(O)c(NC(=O)c4ccc(O)c(CC=C(C)C)c4)c(=O)oc3c2C)OC1(C)C
- IC50 (second compound 0.0316 µM): > 10 µM
- IC50 (second compound 0.1 µM): > 10 µM
- IC50 (second compound 0.316 µM): > 10 µM
- IC50 (second compound 1 µM): 10 µM
- IC50 (second compound 3.16 µM): > 10 µM
- IC50 (second compound 10 µM): > 10 µM
- viability, T/C [1]: 93.7%
- viability, T/C [2]: 81.6%
- viability, T/C [3]: 52%
- viability, T/C [4]: 57.3%
- viability, T/C [5]: 74%
- viability, T/C [6]: 52.9%
- viability, T/C [7]: 87.1%
- viability, T/C [8]: 87.2%
- viability, T/C [9]: 63%
- viability, T/C [10]: 56.3%
- viability, T/C [11]: 70.4%
- viability, T/C [12]: 50.4%
- viability, T/C [13]: 110%
- viability, T/C [14]: 88.8%
- viability, T/C [15]: 66.1%
- viability, T/C [16]: 56.2%
- viability, T/C [17]: 60.3%
- viability, T/C [18]: 52.9%
- viability, T/C [19]: 91.5%
- viability, T/C [20]: 99.9%
- viability, T/C [21]: 53.4%
- viability, T/C [22]: 61%
- viability, T/C [23]: 60.4%
- viability, T/C [24]: 56%
- viability, T/C [25]: 94.9%
- viability, T/C [26]: 96.9%
- viability, T/C [27]: 75.3%
- viability, T/C [28]: 51%
- viability, T/C [29]: 58.1%
- viability, T/C [30]: 52.9%
- viability, T/C [31]: 108%
- viability, T/C [32]: 90.2%
- viability, T/C [33]: 56.7%
- viability, T/C [34]: 48.9%
- viability, T/C [35]: 64.5%
- viability, T/C [36]: 55.3%
